Laboratory results published in a melting point compilation (Tetko et al.; mined from patent text by program, amines drawn as free bases though some values may be those of a salt).

melting point [°C]	SMILES
157 to 160	O=c1oc(-c2ccccc2)cc(O)c1C(CC1CCCC1)SC1CCCCC1 (stereo not drawn)
138 to 140	O=C1OC(=O)C2CCCC1C2
121 to 124	Cc1ccnc(SCc2nc3ccc(CC(=O)O)cc3[nH]2)c1
106 to 108	CCOc1c(C)c(N2CCN(c3ccc(OC)cc3)CC2)c(C)c2c1OC(C)C2 (stereo not drawn)
287 to 293	Oc1ccc(Cc2cnc3c(-c4cc(-c5ccccc5)cs4)cnn3c2O)cc1
111 to 112	CCCCCCOc1c(OCCCCCC)c(OC(=O)C(C)(C)C)c2ccccc2c1OC(=O)C(C)(C)C
71	CSc1ccc(CCC(C)=NO)cc1
210 to 225	c1ccc(C2CC(Cc3ccncc3)(Cc3ccncc3)c3ccccc32)cc1 (stereo not drawn)
97	CCOC(=O)c1cc2c(F)cccc2nc1Cl
196	COc1ccc(-c2c(Cl)ncn2-c2ccc(S(C)(=O)=O)cc2)cc1F
165 to 167	O=C(c1sc2ccc(C(F)(F)F)cc2c1O)N(C=Cc1ccccc1)C=Cc1ccccc1
190 to 193	NCCCCCCCCC(=O)O
208	CC1(C)CCC(=O)Nc2ccc([N+](=O)[O-])cc21
106 to 109	CC(=O)c1ccc(OCCCOc2cc([N+](=O)[O-])c(C)cc2Br)c(CCC(F)(F)F)c1O
184	COc1ccc(-c2ccc(C(=O)Nc3cc4ncc(CN5CCCC5)cc4cc3Cl)cc2)cc1
85 to 89	CC(=NO)c1ncc(C)nc1C
198	COc1cc(OC)nc(-n2nc(SC)n(N)c2=O)n1
74 to 76	CC(C)=CCCC(C)=CCS(=O)c1ccc2ccccc2c1 (stereo not drawn)
92 to 95	COc1ccc(C(=O)N2C(=O)CCC2CCC(=O)OCc2ccccc2)cc1OCc1ccccc1 (stereo not drawn)
171 to 173	O=C(O)C1CSC(c2ccncc2)N1 (stereo not drawn)
137	CCCCc1ccc(CN(CCCCCCC(=O)O)S(C)(=O)=O)cc1
183 to 184	CC(=O)N(c1ccc(O)cc1)N1CCOCC1
236 to 238	COc1ccccc1-c1ccc(C#N)c(=O)[nH]1
88 to 90	COc1ccc(/C=C/C(=O)C2C(=O)CC(c3ccc(OC)cc3)C([N+](=O)[O-])C2C=Cc2ccccc2)cc1 (stereo not drawn)

melting point [°C]	SMILES
215 to 218	CCN1c2ncccc2C(=O)N(C)c2ccc(O)nc21
236 to 237	O=c1[nH]c(=Cc2ccc(OCc3ccccc3)cn2)c(=O)[nH]c1=Cc1cccc(Cl)c1
121 to 122	O=C(O)C(=O)c1ccc(OCCOc2ccc(Cl)cc2)cc1
228 to 229	CCCc1c2c(c(OC)c3c(=O)cc(C(=O)O)oc13)CCCC2
216 to 218	Cc1ccc(Cc2cnc(NCCCN(c3ccccc3)c3ccccn3)[nH]c2=O)cn1
95	COC(=O)CCCC(=N)Nc1[nH]c2ccccc2c1C(=O)OC
155 to 168	O=C1Nc2ccc([N+](=O)[O-])cc2C12OCCCO2
161 to 163	CN1CCCC1C1CCCN(CC(=O)N2c3ccccc3NC(=O)c3ccccc32)C1 (stereo not drawn)
127 to 130	CC(C)(C)c1cc(Cl)c2c(c1)C=NS(=O)(=O)O2
151 to 152	CC(C)(C)c1csc(-c2cc3cc(Cn4c(C(N)=O)cc5ccccc54)ccc3o2)n1
93 to 95	CCOC(=O)c1ccc(CN2CC[C@H](NC(=O)OC(C)(C)C)C2=O)c(C(F)(F)F)c1
171 to 172	COc1ccc(N2CCOCC2)c2sc(NC(=O)N3CCCOCC3)nc12
70 to 72	O=C(Nc1ccc(Br)cn1)C(F)(F)F
93 to 94	CCOC(=O)c1cccc(-c2ccc(-c3ccc(C(F)(F)F)cc3)o2)c1
304 to 306	O=c1[nH]c2cc(Cl)ccc2c(O)c1-c1cccc(Cc2ccccc2)c1
190	N#Cc1ccc(N(Cc2ccc3c(c2)CNS(=O)(=O)O3)n2ccnc2)cc1
63 to 64	CCc1cc(C#N)c(Cl)nc1C
198 to 200	Cc1ccc(C(=O)NC(NC(=NC#N)Nc2ccc(Cl)nc2)C(C)(Cl)Cl)cc1 (stereo not drawn)
> 275	Cc1ccccc1-n1c(-c2sc(NC(=O)c3ccccc3)nc2-c2ccccc2)nc2ccccc2c1=O
> 300	O=C(NN1CCNC1=O)c1c[nH]c2cc(O)c(O)cc2c1=O
168 to 170	CCN1C(=O)C(C)(C)C(=O)N(C)c2cc(CCN(CCn3cc(C)c4oc(C)cc4c3=O)Cc3cc(C)nn3C)ccc21
140 to 141	CN1CCN(S(=O)(=O)CCCOc2ccc3ncnn3n2)CC1
61 to 62	Cc1cc2c(cc1C(C)O)OCO2 (stereo not drawn)
247	COc1ccc(Cn2c(N)c(Br)c(=O)[nH]c2=O)cc1

melting point [°C]	SMILES
180	NC(=O)C=Cc1cccc(Cl)c1
226 to 229	COc1cc(-c2ccccc2)c(OC)cc1Nc1ncnc2cc(OC)c(OC)cc12
116 to 118	CCOC(=O)/C=C/c1ccc(C#Cc2ccc3c(c2)C(C)(C)CCC3(C)C)cc1
95	CC(=O)C=CS(=O)(=O)N1C=C(Cl)C=NC1
106 to 109	CCCCCCC1=CC(O)(C(Br)Br)NC1=O (stereo not drawn)
137 to 138	O=C(OCC1OC(OC(=O)c2ccccc2)C(O)C1OC(=O)c1ccccc1)c1ccccc1 (stereo not drawn)
119 to 120	O=C(O)C(=O)c1ccc(Br)s1
138 to 139	Nc1ccc(-c2cccc(C(F)(F)F)c2)nn1
113 to 117	O=C(O)c1cc(Oc2cc(F)c(C(F)(F)F)c(Cl)c2)ccc1Br
114 to 116	CCc1ncnc(NC2CCC(c3ccc(Oc4ccc(C(F)(F)F)cn4)cc3)CC2)c1Cl (stereo not drawn)
45 to 47	O=C(O)CCCc1ccc(F)cc1F
148 to 151	NCC(=O)N(C(=O)C(O)c1ccccc1)c1ccccc1 (stereo not drawn)
188	O=Cc1cnc(Sc2nc3ccccc3[nH]2)s1
170 to 172	Cc1nc(-n2ccc(OCCC3CC3)cc2=O)sc1C(=O)NCc1cccnc1
244 to 246	Cn1c(COc2ccc(CC3SC(=O)NC3=O)cc2)nc2cncnc21 (stereo not drawn)
112 to 115	Cc1cc([N+](=O)[O-])c2c(c1Cl)CC(CO)O2 (stereo not drawn)
84 to 88	CC(=O)OC(C)OC(=O)[C@H](Cc1ccc(-c2c(C)n(C)c(=O)n(C)c2=O)cc1)NC(=O)c1c(C)cccc1Cl (stereo partly drawn)
150 to 151	O=[N+]([O-])c1ccc(S(=O)(=O)NCc2ccccc2)c([N+](=O)[O-])c1
161	O=C1C=CC(=O)c2c1cccc2[N+](=O)[O-]
95 to 99	NC1=NC(c2ccc(OC(F)(F)F)cc2)(c2cccc(-c3cccnc3F)c2)C2=NCCCCCN12 (stereo not drawn)
89 to 92	C=C(C)Cc1cccc(C(=O)O)c1S
186 to 188	COc1cc(OCCN2CCOCC2)c(C=CC(=O)c2ccc(S(N)(=O)=O)cc2)cc1-c1cccs1
254 to 255	COc1c(-c2cc3c(s2)CC(O)C3)ccc2c(=O)c(C(=O)O)cn(C3CC3)c12 (stereo not drawn)

SMILES	melting point [°C]
CN1C(=O)COc2c(C(=O)NC3CN4CCC3CC4)cc(O)cc21 (stereo not drawn)	250 to 251
NCC1N=C(c2ccccc2F)c2ccccc2NC1=O (racemic)	168 to 169
